Counter-ions that a name gives are not always drawn. Like-named read-outs stand apart in the source and are kept apart here.
What was measured:
[1] = target: Tau binding to heparin (HS-GAG) (Homo sapiens, UniProt P10636); assay: Inhibition of Tau binding to immobilized heparin-BSA (ELISA); parameters: species or system porcine; details: for IC50: Tau, heparin-BSA; for inhibition at 30 µM: read-out: Tau/Heparin Activity (% inhibition class)
Experimental: (§1) Porcine intestinal mucosa heparin conjugated to Bovine Serum Albumin (Heparin-BSA) was prepared as described (Najjam, S. et al. 1997, Cytokine 12, 1013-1022). Heparin is a sulfated HS-GAG and is commonly used as a HS-GAG in biochemical and binding assays (Lindahl, U. and Kjellen, L. (2013) ibid). Heparin-BSA at 0.01 mg/ml in Phosphate Buffered Saline (PBS; pH 7.4) was added to a 96 well polystyrene ELISA plate (NUNC Cat. No. 449824; 100 μl per well) and incubated Over Night (ON) at 4 degrees Celsius. For negative controls, ELISA plates were coated with BSA instead of Heparin-BSA, using the same procedure. Following the incubation, the plate was washed consecutively, by immersion, with de-ionized water and PBS (pH 7.4). The ELISA plate was then blocked with nonfat milk (2%, 200 μl per well) for 2 hours at Room Temperature (RT) with gentle shaking. Following blocking, the plate was washed with de-ionized water then PBS (pH 7.4). GBAPs were dissolved and diluted in PBS (pH 6.5, supplemented with 0.1% BSA) at desired concentrations, added to the ELISA plates containing immobilized Heparin-BSA (100 μl per well) and incubated for 2 hours at RT with gentle shaking. Following incubation, the plate was washed with de-ionized water and three times with PBS (pH 6.5) plus Tween. Bound GBAP was detected by a monoclonal antibody specific for that GBAP, followed by incubation with secondary antibody conjugated to horseradish peroxidase (HRP). Antibody was diluted in PBS (pH 6.5 supplemented with 1% BSA). Following each incubation with antibody, the plate was washed with de-ionized water and three times with PBS (pH 6.5) wash buffer containing 0.1% Tween. The peroxidase substrate chromogen, TMB (Dako Cat. No. S1599) was added (100 μl per well) to the ELISA plate and incubated at room temperature. After 5 minutes ELISA Stop Solution (hydrochloric acid 1N, sulfuric acid 3N) was added (100 μl per well) to stop the peroxidase catalyzed colorimetric reaction. The Optical Density of the samples was measured at 450 nm using an ELISA plate reader (BioTek Synergy H1). Following color development, the % inhibition compared to control (BSA-coated plates) was determined. IC-50s were calculated using GraphPad Prism software.
The assay was performed as described in Example 43, with the following modifications. Following to coating the plates with Heparin-BSA, plates were washed as described. The compounds were dissolved in DMSO at 10 mM final concentration and further diluted prior to assay. DMSO concentration in the screening well was up to 2%. Individual compounds were co-incubated with Tau on plates containing immobilized heparin. Tau purchased from rPeptide (Cat. No. T1001) was dissolved in DMSO (Sigma Cat. No. D2650), quickly frozen and kept in aliquots at −80 degrees Celsius. Tau dissolved in PBS (pH 6.5, supplemented with BSA, 0.1%) was added to the ELISA plate (100 μl per well) and incubated for 2 hours at RT with gentle shaking. Following the incubation, the plate was washed with de-ionized water and three times with PBS (pH 6.5) plus Tween. Bound Tau was detected by anti-Tau Monoclonal Antibody D-8 (Santa Cruz Cat. No. sc-166060), followed by secondary anti-IgG antibody conjugated to HRP (R&D System, Cat. No. HAF007). Following to color development with TMB, as described in Example 43, the Optical Density of the samples was measured at 450 nm using an ELISA plate reader. Following color development, the % inhibition compared to control (no compound, DMSO control) for every compound was determined.
An example of inhibition curve is shown in FIG. 3 for Inhibitor Compounds 3 and 6. As described in Example 43, Heparin in the form of Heparin-BSA conjugate is used as a source of HS-GAG. For each compound IC-50 value in Tau—heparin-BSA binding assay is shown in […]. In some cases IC-50 was not measured and […] at 30 μM compound concentration is shown instead. […]

[2] = target: T1, SAA binding to heparin (HS-GAG) (Homo sapiens, UniProt P0DJI8); assay: Inhibition of SAA binding to immobilized heparin-BSA (ELISA); parameters: species or system porcine
T1 sequence (P0DJI8 19-122): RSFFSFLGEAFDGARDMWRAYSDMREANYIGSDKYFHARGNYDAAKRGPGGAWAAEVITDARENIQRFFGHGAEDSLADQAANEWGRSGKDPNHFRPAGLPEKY
Experimental: as §1
The assay was performed as described in Example 43, with the following modifications. Following to coating the plates with Heparin-BSA, plates were washed as described. The compounds were dissolved in DMSO at 10 mM final concentration and further diluted prior to assay. DMSO concentration in the screening well was up to 2%. Individual compounds were co-incubated with SAA on plates containing immobilized heparin. Serum amyloid A (SAA) from PeProtech (NJ, USA, Cat. No. 300-53) was dissolved in DMSO, quickly frozen and kept in aliquots at −80 degrees Celsius. SAA dissolved in Tris buffer (pH 6.5, supplemented with BSA, 0.1%) was added to the ELISA plate (100 μl per well) and incubated for 2 hours at RT with gentle shaking. Following the incubation, the plate was washed with de-ionized water and three times with Tris Buffered Saline (TBS, pH 6.5) plus Tween. Bound SAA was detected by Anti-SAA Monoclonal Antibody (R&D System Cat. No. MAB30192), followed by secondary anti-IgG antibody conjugated to HRP (R&D System, Cat. No. HAF007). Antibody was diluted in TBS antibody buffer (pH6.5 supplemented with 1% BSA). Following each incubation with antibody, the plate was washed with de-ionized water and three times with TBS (pH6.5) wash buffer containing 0.1% Tween. Following to color development with TMB, as described in Example 43, the Optical Density of the samples was measured at 450 nm using an ELISA plate reader. Following color development, the % inhibition compared to control (no compound, DMSO control) for every compound was determined.
As described in Example 43, Heparin in the form of Heparin-BSA conjugate is used as a source of HS-GAG. For each compound IC-50 value in SAA—heparin-BSA binding assay is shown in μM (micromolar). […]

[3] = read-out: Serum Amyloid A/Heparin Activity (IC-50); SAA, heparin-BSA
[4] = read-out: Tau/Heparin Activity (IC-50)
[5] = SAA, heparin-BSA; read-out: Serum Amyloid A/Heparin Activity (IC-50)
[6] = read-out: Serum Amyloid A/Heparin Activity (% inhibition class)

Chain of Tau binding to heparin (HS-GAG) (P10636 with tags, fused parts or gaps): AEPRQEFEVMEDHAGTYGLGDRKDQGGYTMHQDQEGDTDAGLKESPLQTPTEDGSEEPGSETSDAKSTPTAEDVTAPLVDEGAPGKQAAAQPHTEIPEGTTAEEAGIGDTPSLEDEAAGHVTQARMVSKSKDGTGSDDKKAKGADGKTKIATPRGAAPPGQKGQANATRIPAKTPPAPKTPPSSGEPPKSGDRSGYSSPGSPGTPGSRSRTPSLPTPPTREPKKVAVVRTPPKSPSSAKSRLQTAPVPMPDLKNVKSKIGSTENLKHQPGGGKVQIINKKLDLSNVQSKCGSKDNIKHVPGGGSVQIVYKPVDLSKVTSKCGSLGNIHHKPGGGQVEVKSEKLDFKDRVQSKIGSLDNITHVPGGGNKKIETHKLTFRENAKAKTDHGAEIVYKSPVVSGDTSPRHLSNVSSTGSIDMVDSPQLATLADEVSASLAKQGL

Structure (SMILES)	IC50 ([1]; Tau/Heparin Activity (IC-50)) [µM]	IC50 [2, 3] [µM]	inhibition at 30 µM [2, 6] [%]	further results
Cc1ncn(-c2ccc(/C=N\Nc3ncnc4cc(Cl)ccc34)cn2)c1C [Compound 15, 7-chloro-4-(2-((6-(4,5-dimethyl-1H-imidazol-1-yl)pyridin-3-yl)methylene)hydrazineyl)quinazoline hydrochloride]	67.9	12.3		
C/C(=N\Nc1ncnc2cc(Cl)ccc12)c1ccc(-n2cnc(C)c2C)nc1 [Compound 16, 7-chloro-4-(2-(1-(6-(4,5-dimethyl-1H-imidazol-1-yl)pyridin-3-yl)ethylidene)hydrazineyl)quinazoline phosphate]	3.92	13.9		
C/C(=N\Nc1ncnc2cc(Cl)ccc12)c1ccc(-n2cc[n+](C)c2)nc1 [Compound 17, (E)-1-(5-(1-(2-(7-chloroquinazolin-4-yl)hydrazineylidene)ethyl)pyridin-2-yl)-3-methyl-1H-imidazol-3-ium iodide phosphoric acid salt]	12.2	34.9		
C/C(=N\Nc1ncnc2cc(Cl)ccc12)c1ccc(-n2cc(C)nc2C)nc1 [Compound 18, (E)-7-chloro-4-(2-(1-(6-(2,4-dimethyl-1H-imidazol-1-yl)pyridin-3-yl)ethylidene)hydrazineyl)quinazoline phosphoric acid salt]				IC50 [1, 4]: 13.6 µM; IC50 [2, 5]: 22.2 µM
C/C(=N\Nc1ncnc2ccccc12)c1ccc(-n2cc(C)nc2C)nc1 [Compound 19, (E)-4-(2-(1-(6-(2,4-dimethyl-1H-imidazol-1-yl)pyridin-3-yl)ethylidene)hydrazineyl)quinazoline]	46.6	8.59		
CN1CCN(c2cc(Nc3ccnc4cc(Cl)ccc34)ccn2)CC1 [Compound 20, 7-chloro-N-(2-(4-methylpiperazin-1-yl)pyridin-4-yl)quinolin-4-amine]			> 30	inhibition at 30 µM [1]: < 30%
C/C(=N\Nc1ncnc2cc(F)ccc12)c1ccc(-n2cnc(C)c2C)nc1 [Compound 21, (E)-4-(2-(1-(6-(4,5-dimethyl-1H-imidazol-1-yl)pyridin-3-yl)ethylidene)hydrazineyl)-7-fluoroquinazoline]				IC50 [1, 4]: 80.9 µM; IC50 [2, 5]: 85.2 µM
CC(=NNc1ccnc2cc(Cl)ccc12)c1ccc(-n2cnc(C)c2C)nc1 [Compound 22, 7-chloro-4-(2-(1-(6-(4,5-dimethyl-1H-imidazol-1-yl)pyridin-3-yl)ethylidene)hydrazineyl)quinoline]	28.2	83.2		
CC(=NNc1ccnc2cc(Cl)ccc12)c1ccc(-n2cc[n+](C)c2)nc1 [Compound 23, 1-(5-(1-(2-(7-chloroquinolin-4-yl)hydrazineylidene)ethyl)pyridin-2-yl)-3-methyl-1H-imidazol-3-ium iodide]	25.7		< 30	
C/C(=N\Nc1nncc2cc(Cl)ccc12)c1ccc(-n2cc(C)nc2C)nc1 [Compound 24, (E)-6-chloro-1-(2-(1-(6-(2,4-dimethyl-1H-imidazol-1-yl)pyridin-3-yl)ethylidene)hydrazineyl)phthalazine]				IC50 [1, 4]: 37.9 µM; IC50 [2, 5]: 7.89 µM
Cc1ncn(-c2ccc(Nc3ncnc4cc(Cl)ccc34)cn2)c1C [Compound 25, 7-chloro-N-(6-(4,5-dimethyl-1H-imidazol-1-yl)pyridin-3-yl)quinazolin-4-amine]		40.9		inhibition at 30 µM [1]: < 30%
C/C(=N\Nc1ncnc2cc(F)ccc12)c1ccc(-n2cc[n+](C)c2)nc1 [Compound 26, (E)-1-(5-(1-(2-(7-fluoroquinazolin-4-yl)hydrazineylidene)ethyl)pyridin-2-yl)-3-methyl-1H-imidazol-3-ium phosphoric acid salt]	17.7		< 30	
C/C(=N\Nc1ncnc2cc(Cl)ccc12)c1ccc(-n2cc(C)nc2C)nc1 [Compound 27, (E)-7-chloro-4-(2-(1-(6-(2,4-dimethyl-1H-imidazol-1-yl)pyridin-3-yl)ethylidene)hydrazineyl)quinazoline hydrochloride]				IC50 [1, 4]: 2.86 µM; IC50 ([2]; SAA, heparin-BSA; hydrochloride; read-out: Serum Amyloid A/Heparin Activity (IC-50)): 24.7 µM
CC(=NNc1ncnc2cc(Cl)ccc12)c1ccnc(-n2cnc(C)c2C)c1 [Compound 28, 7-chloro-4-(2-(1-(2-(4,5-dimethyl-1H-imidazol-1-yl)pyridin-4-yl)ethylidene)hydrazineyl)quinazoline]				IC50 [1, 4]: 61.8 µM; IC50 [2, 5]: 8.78 µM
C/C(=N\Nc1ncnc2cc(Cl)ccc12)c1cccc(CN(C)C)c1 [Compound 29, 1-(3-(1-(2-(7-chloroquinazolin-4-yl)hydrazineylidene)ethyl)phenyl)—N,N-dimethylmethanamine]	32.4		< 30	
C/C(=N\Nc1ncnc2cc(Cl)ccc12)c1cccc(N2CCN(C)CC2)c1 [Compound 30, 7-chloro-4-(2-(1-(3-(4-methylpiperazin-1-yl)phenyl)ethylidene)hydrazineyl)quinazoline]	32.2		< 30	
COc1cc(Nc2nncc3cc(Cl)ccc23)cnc1-n1cnc(C)c1C [Compound 31, 6-chloro-N-(6-(4,5-dimethyl-1H-imidazol-1-yl)-5-methoxypyridin-3-yl)phthalazin-1-amine phosphoric acid salt]	33.7		> 30	
C/C(=N\Nc1ncnc2cc(Cl)ccc12)c1ccc(-n2cncn2)nc1 [Compound 32, (E)-4-(2-(1-(6-(1H-1,2,4-triazol-1-yl)pyridin-3-yl)ethylidene)hydrazineyl)-7-chloroquinazoline]			> 30	inhibition at 30 µM [1]: < 30%

Source: US20240398783A1, “Compounds and Pharmaceutical Compositions Comprising Inhibitors of Amyloid Peptide Interactions with Glycosaminoglycans, Methods of Treatment and Use Thereof” (Gismo Therapeutics, Inc., priority 2021, published 2024)
